From patent publication EP2951180B1, “2,6,7,8 SUBSTITUTED PURINES AS HDM2 INHIBITORS” (Merck Sharp & Dohme Corp., priority 2013, dated 2014) come the findings set out here.

pIC50: −log10 of the molar value.

The test deals with T1, HDM2 (Homo sapiens, UniProt Q00987).
T1 construct: Thioredoxin (N); made in house; host or cells: E. coli strain BL21(DE3)Rosetta
T1 sequence (Q00987 17-125): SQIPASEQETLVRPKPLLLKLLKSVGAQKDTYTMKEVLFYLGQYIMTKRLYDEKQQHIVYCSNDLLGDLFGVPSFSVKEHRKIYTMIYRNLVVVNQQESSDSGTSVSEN
Nature of the test: HDM2 FRET assay (inhibition of binding of FITC labeled p53-pocket peptide to HDM2). Particulars: Table 23; read-out: FRET IC50. Summed up: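 Signal is read as the 520/495 nm emission ratio and converted to percent inhibition; nonlinear sigmoidal regression yields IC50. The assay mixes HDM2 (0.5 nM), FITC-p53 peptide (3 nM) and Tb anti-His antibody (0.25 nM) at 0.1% DMSO.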
In the case of `C[C@H]1CC[C@H](Cn2c(C(=O)c3ccccc3)nc3nc(-c4noc(=O)[nH]4)nc(-c4cccc(Cl)c4)c32)CC1` [Example 23.43, 3-[6-(3-chlorophenyl)-7-[(trans-4-methylcyclohexyl)methyl]-8-(phenylcarbonyl)-7H-purin-2-yl]-1,2,4-oxadiazol-5(4H)-one], the pIC50 is 7.14.
`C[C@H]1CC[C@H](Cn2c(C3(F)CCCCC3)nc3nc(-c4n[nH]c(=O)o4)nc(-c4cncc(Cl)c4)c32)CC1` [Example 23.56, 5-{6-(5-chloropyridin-3-yl)-8-(1-fluorocyclohexyl)-7-[(trans-4-methylcyclohexyl)methyl] -7H-purin-2-yl}-1,3,4-oxadiazol-2(3H)-one]: the negative-log IC50 (pIC50) is 7.97.
With `COC1(c2nc3nc(-c4noc(=O)[nH]4)nc(-c4cncc(Cl)c4)c3n2C[C@H]2CC[C@H](C)CC2)CCC1` [Example 23.62, 3-{6-(5-chloropyridin-3-yl)-8-(1-methoxycyclobutyl)-7-[(trans-4-methylcyclohexyl)methyl] -7H-purin-2-yl}-1,2,4-oxadiazol-5(4H)-one] the figure was 7.88.
For `COC1(c2nc3nc(-c4noc(=O)[nH]4)nc(-c4cncc(Cl)c4)c3n2C[C@H]2CC[C@H](C)CC2)COC1` [Example 23.70, 3-{6-(5-chloropyridin-3-yl)-8-(3-methoxyoxetan-3-yl)-7-[(trans-4-methylcyclohexyl)methyl] -7H-purin-2-yl}-1,2,4-oxadiazol-5(4H)-one], the pIC50 is 8.03.
Regarding `COC1(c2nc3nc(-c4noc(=O)[nH]4)nc(-c4cncc(Cl)c4)c3n2C[C@H]2CC[C@H](C)CC2)CCCCC1` [Example 23.75, 3-{6-(5-chloropyridin-3-yl)-8-(1-methoxycyclohexyl)-7-[(trans-4-methylcyclohexyl)methyl] -7H-purin-2-yl}-1,2,4-oxadiazol-5(4H)-one], the pIC50 is 7.51.
With `COC1(c2nc3nc(-c4n[nH]c(=O)o4)nc(-c4cncc(Cl)c4)c3n2C[C@H]2CC[C@H](C)CC2)CCCCC1` [Example 23.76, 5-{6-(5-chloropyridin-3-yl)-8-(1-methoxycyclohexyl)-7-[(trans-4-methylcyclohexyl)methyl] -7H-purin-2-yl}-1,3,4-oxadiazol-2(3H)-one] the figure was 7.85; with `COC1(c2nc3nc(-c4noc(=O)[nH]4)nc(-c4cncc(Cl)c4)c3n2C[C@H]2CC[C@H](C)CC2)CCCC1` [Example 23.77, 3-{6-(5-chloropyridin-3-yl)-8-(1-methoxycyclopentyl)-7-[(trans-4-methylcyclohexyl)methyl] -7H-purin-2-yl}-1,2,4-oxadiazol-5(4H)-one], 8.09.
Regarding `C[C@H]1CC[C@H](Cn2c(C3(c4ccccc4F)CC3)nc3nc(-c4noc(=O)[nH]4)nc(-c4cncc(Cl)c4)c32)CC1` [Example 23.100, 3-{6-(5-chloropyridin-3-yl)-8-[1-(2-fluorophenyl)cyclopropyl] -7-[(trans-4-methylcyclohexyl)methyl] -7H-purin-2-yl}-1,2,4-oxadiazol-5(4H)-one], the pIC50 is 8.23.
With `Cc1ocnc1C1(c2nc3nc(-c4noc(=O)[nH]4)nc(-c4cccc(Cl)c4)c3n2C[C@H]2CC[C@H](C)CC2)CC1` [Example 23.101, 3-{6-(3-chlorophenyl)-7-[(trans-4-methylcyclohexyl)methyl]-8-[1-(5-methyl-1,3-oxazol-4-yl)cyclopropyl]-7H-purin-2-yl}-1,2,4-oxadiazol-5(4H)-one] the figure was 7.52.
With `C[C@H]1CC[C@H](Cn2c(C3(c4ccccn4)CC3)nc3nc(-c4nc(=O)o[nH]4)nc(-c4cccc(Cl)c4)c32)CC1` [Example 23.102, 3-[6-(3-chlorophenyl)-7-[(trans-4-methylcyclohexyl)methyl] -8-(1-pyridin-2-ylcyclopropyl)-7H-purin-2-yl]-1,2,4-oxadiazol-5(2H)-one] the figure was 7.77.

For orientation: pIC50 means the IC50 on a negative log10 scale, so that one unit is a factor of ten.
